Data from patent US20260240941A1, “TREATMENT AND PREVENTION OF AGENT-INDUCED LIVER CONDITIONS OR DISEASES” (FARSIGHT MEDICAL TECHNOLOGY (SHANGHAI) CO., LTD., priority 2023, published 2026).
Entries after “also recorded” stand apart in the source; their conditions may differ.

Experiments:
C57BL/6J wild-type mice [1] = assay: Acetaminophen-induced liver injury model in mice; type: in vivo; settings: for Necrotic Area (%) of the liver (liver tissue protection): 5 mg/kg and 10 mg/kg i.v. 1 h after APAP 300 mg/kg i.p.; for Necrotic Area (%) of the liver (liver tissue protection) / ALT biomarker level / AST biomarker level: vs APAP alone
Method: C57BL/6J wild-type mice were purchased from Guangdong Medical Animal Centre (Guangzhou, China). Male mice (n=8, 8 weeks of age) were randomly assigned to the different treatment groups. Mice were acclimatized to their environment for 1 week before the experiments. Animals were fasted overnight, but allowed access to water, before acetaminophen (APAP) administration.
APAP (Sigma Aldrich) was dissolved in warm phosphate-buffered saline (PBS; 55° C.) that was cooled to 37° C. before injection and administered intraperitoneally with APAP at a dose of 300 mg/kg after 15 hours of starvation. Compound 1 was made fresh for each experiment in sterile 0.9% saline at 20 mg/ml. N-acetylcysteine (NAC, Sigma Aldrich) was made fresh for each experiment in 0.9% saline at 20 mg/ml.
After APAP administration (1 hours), either PBS (Control Group), Compound 1 (10 mg/kg, 5 mg/kg, 2.5 mg/kg, 1 mg/kg) or NAC (150 mg/kg) were injected intravenously in the tail vein of mice. In the Control Group, the mice were injected with phosphate-buffered saline vehicle (labelled “Ctrl” in the Figures), in the Vigilance Group the mice were injected with Compound 1 (labelled “v-Compound 1-10 mg” in the Figures). In both the Control and Vigilance Groups, no APAP was administered.
Mice were sacrificed at 6 and 24 hours after administration of APAP. Blood samples and livers were harvested for serum ALT (alanine aminotransferase) and AST (aspartate aminotransferase), and histology. ALT and AST in serum samples were detected using the alanine aminotransferase assay kit (S03030) and the aspartate aminotransferase assay kit (S03040) and automated clinical chemistry analyzer (Chemray 800) from Rayto.
All liver sections were stained with a hematoxylin and eosin (H&E) stain. Necrotic area was measured and expressed as a percentage of necrotic tissue in whole area of liver section. All animal procedures were approved by the Laboratory Animals Ethics Committee of Jinan University (Guangzhou, China).

C57BL/6J wild-type mice [2] = assay: Alcohol-induced liver injury in mice (chronic 8 weeks ethanol diet plus multiple binges, E8w+nB); type: in vivo; settings: 10 mg/kg i.p. daily for the last two weeks of 8 weeks alcohol plus binges
Source text: C57BL/6J wild-type mice were purchased from Guangdong Medical Animal Centre (Guangzhou, China). Male mice (n=7, 8 weeks of age) were randomly assigned to the different treatment groups. The mice were initially fed a controlled Lieber-DeCarli diet ad libitum for 5 days (TP4030C, Trophic Animal Feed High-Tech Co., Ltd, China) to acclimatize them to a liquid diet. Subsequently, the ethanol-fed groups were allowed free access for 8 weeks to an ethanol diet (TP4030D, Trophic) containing 5% (vol/vol) ethanol.
Chronic (8 weeks)-plus-multiple binges (E8w+nB): mice were fed an ethanol Lieber-DeCarli diet for 8 weeks as described above and treated by gavage administration twice a week (5 g/kg ethanol) during the 8-week feeding. Mice were euthanized 9 h post gavage.
The control mice were pair-fed an isocaloric control liquid diet for 8 weeks (P8w), followed by gavage administration of isocaloric liquid dextrin-maltose (Ctrl), without exposure to alcohol.
Compound 1 was made fresh for each experiment in sterile 0.9% saline at 20 mg/ml and administered intraperitoneally (10 mg/kg) daily for the last two weeks.
Blood samples and livers were harvested for serum ALT and AST, and histology. All liver sections were stained with H&E and Oil Red O staining. The features of alcoholic liver disease (“ALD”) are scored according to the non-alcoholic fatty liver disease (“NAFLD”) activity score (“NAS”) originally developed to measure changes in NAFLD during therapeutic trials but is also applicable to ALD. The ALD score of each group was calculated according to standard procedures.
Oil Red O is a fat-soluble azo dye, used to stain fats, specifically neutral triglycerides, lipids and lipoproteins in tissues and cells. […] The Oil Red O quantification “a.v.” means a subjective quantity, i.e., “arbitrary value”. The image quantification software ImageJ was used to select the area of oil red staining in liver sections and the area of lipid droplets in quantitative sections.

[3] = 5 mg/kg and 10 mg/kg i.v., 6 hours after APAP
[4] = 5 mg/kg and 10 mg/kg i.v., 24 hours after APAP
[5] = all Compound 1 levels (1, 2.5, 5, 10 mg/kg i.v.), 6 hours after APAP
[6] = all Compound 1 levels (1, 2.5, 5, 10 mg/kg i.v.), 24 hours after APAP

C/C=C/C[C@@H](C)[C@@H](O)[C@H]1C(=O)N[C@@H](CC)C(=O)N(C)[C@H](OCCN(C)C)C(=O)N(C)[C@@H](CC(C)C)C(=O)N[C@@H](C(C)C)C(=O)N(C)[C@@H](CC(C)C)C(=O)N[C@@H](C)C(=O)N[C@H](C)C(=O)N(C)[C@@H](CC(C)C)C(=O)N(C)[C@@H](CC(C)C)C(=O)N(C)[C@@H](C(C)C)C(=O)N1C [Compound 1, [(R)-2′(2-dimethylaminoethoxy)-Sar]^3 cyclosporin A]
TNF-α, IL-1β, and/or IL-6 inflammation biomarker levels of the liver (C57BL/6J wild-type mice [1]; 2.5 mg/kg, 5 mg/kg and 10 mg/kg i.v., 6 hours after APAP): reduced | Necrotic Area (%) of the liver (liver tissue protection) (C57BL/6J wild-type mice [1]; 6 hours after APAP): showed liver tissue protection; also recorded: reduced necrotic area | Necrotic Area (%) of the liver (liver tissue protection) (C57BL/6J wild-type mice [1]; 24 hours after APAP): showed liver tissue protection; also recorded: reduced necrotic area | IL-1β inflammation biomarker (ELISA) (C57BL/6J wild-type mice [1]; [3]): reduced | IL-6 inflammation biomarker (ELISA) (C57BL/6J wild-type mice [1]; [3]): reduced | TNF-α inflammation biomarker (ELISA) (C57BL/6J wild-type mice [1]; [3]): reduced | ALT biomarker level (C57BL/6J wild-type mice [1]; [3]): reduced | AST biomarker level (C57BL/6J wild-type mice [1]; [3]): reduced | IL-1β inflammation biomarker (ELISA) (C57BL/6J wild-type mice [1]; [4]): reduced | IL-6 inflammation biomarker (ELISA) (C57BL/6J wild-type mice [1]; [4]): reduced | TNF-α inflammation biomarker (ELISA) (C57BL/6J wild-type mice [1]; [4]): reduced | ALT biomarker level (C57BL/6J wild-type mice [1]; [4]): reduced | AST biomarker level (C57BL/6J wild-type mice [1]; [4]): reduced | serum ALT (alanine aminotransferase) biomarker level (C57BL/6J wild-type mice [1]; [5]): reduced | serum AST (aspartate aminotransferase) biomarker level (C57BL/6J wild-type mice [1]; [5]): reduced | TNF-α, IL-1β, and/or IL-6 inflammation biomarker levels of the liver (C57BL/6J wild-type mice [1]; [6]): reduced | serum ALT (alanine aminotransferase) biomarker level (C57BL/6J wild-type mice [1]; [6]): reduced | serum AST (aspartate aminotransferase) biomarker level (C57BL/6J wild-type mice [1]; [6]): reduced | serum ALT (alanine aminotransferase) level (C57BL/6J wild-type mice [2]; vs untreated ALD): reduces | serum AST (aspartate aminotransferase) level (C57BL/6J wild-type mice [2]; vs untreated ALD): reduces | hepatic lipid accumulation (Oil Red O liver staining, a.v.) (C57BL/6J wild-type mice [2]; vs untreated ALD Group): reduces hepatic lipid accumulation
